Legend:
[1] = biological target: T1, G12D-mutant human KRAS (amino acid residues 1-188) (Homo sapiens, UniProt P01116, G12D); experiment: KRAS Binding Disruption Assay (AlphaScreen; biotinylated KRpep-2d analogue or RAF1-RBD), G12D; details: KRAS G12D; geometric mean; read-out: KRAS GMean IC50 (uM) MUTATION: G12D
T1 construct: G12D or G12C-mutant human KRAS (amino acid residues 1-188) with FLAG tag; made in house; host or cells: E. coli
Outline: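 Displacement format with mutant KRAS, biotinylated KRpep-2d analogue or RAF1-RBD (5-20 nM each) at pH 7.5 with 5 mM MgCl2.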

[2] = biological target: T2, G12C-mutant human KRAS (amino acid residues 1-188) (Homo sapiens, UniProt P01116, G12C); experiment: KRAS Binding Disruption Assay (AlphaScreen; biotinylated KRpep-2d analogue or RAF1-RBD), G12C; details: geometric mean, read-out: KRAS GMean IC50 (uM) MUTATION: G12C
T2 construct: G12D or G12C-mutant human KRAS (amino acid residues 1-188) with FLAG tag; made in house; host or cells: E. coli
T2 sequence (P01116 1-188 isoform P01116-2 G12C): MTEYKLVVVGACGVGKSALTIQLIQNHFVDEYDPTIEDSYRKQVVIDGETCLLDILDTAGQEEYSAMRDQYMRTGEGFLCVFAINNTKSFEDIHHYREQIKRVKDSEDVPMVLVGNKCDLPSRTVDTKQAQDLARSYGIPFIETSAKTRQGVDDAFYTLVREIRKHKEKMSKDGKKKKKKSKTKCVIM
Protocol: Compound binding disrupts the interaction of KRpep-2d or RAF1-RBD with KRAS, leading to a decrease in Alpha signal.
All assay components were prepared in 20 mM HEPES (pH 7.5), 100 mM NaCl, 5 mM MgCl2, 0.01% Tween-20, and 0.01% BSA. Biotinylated analogues of KRpep-2d were custom synthesized. The binding disruption assays were performed using 5-20 nM of mutant KRAS and 5-20 nM of either biotinylated KRpep-2d analogue or RAF1-RBD. 19 μL of KRAS protein and 4 μL of biotinylated KRpep-2d or RAF1-RBD were added to the wells of a 384-well plate containing 1 μL of various concentrations of test compound or DMSO vehicle. 16 wells containing KRAS, biotinylated KRpep-2d or RAF1-RBD, and 5% DMSO served as high controls. 16 wells containing KRAS only and 5% DMSO served as low controls. Binding reactions were incubated for 1 hour at 25° C., then Anti-Flag Acceptor and Streptavidin Donor Alpha beads were added at a final concentration of 10 μg/mL for an additional hour at room temperature. Alpha signal was read out on a Perkin Elmer Envision HTS instrument. The percentage inhibition at individual compound concentrations relative to high and low controls was calculated. The data were analyzed by using nonlinear regression to generate IC50 values.

T1 sequence (P01116 1-188 isoform P01116-2 G12D): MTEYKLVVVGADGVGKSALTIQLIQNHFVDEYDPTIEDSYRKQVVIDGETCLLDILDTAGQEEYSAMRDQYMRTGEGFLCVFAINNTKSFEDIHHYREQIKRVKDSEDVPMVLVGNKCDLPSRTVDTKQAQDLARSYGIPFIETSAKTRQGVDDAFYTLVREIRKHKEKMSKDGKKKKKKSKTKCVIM

Row | IC50 [1] [µM] | IC50 [2] [µM] | SMILES
1 | 0.0001 to 10 | 10 to 100 | CCN(CC)C1CN(c2nc(N3C[C@H]4CC[C@@H](C3)N4)c3ccc(-c4cc(O)cc5ccccc45)c(F)c3n2)C1 [P-0637, 4-(4-((1R,5S)-3,8-diazabicyclo[3.2.1]octan-3-yl)-2-(3-(diethylamino)azetidin-1-yl)-8-fluoroquinazolin-7-yl)naphthalen-2-ol]
2 | 0.0001 to 10 | 10 to 100 | Oc1cc(-c2ccc3c(N4C[C@H]5CC[C@@H](C4)N5)nc(N4CC(N5CC(F)C5)C4)nc3c2F)c2ccccc2c1 [P-0638, 4-(4-((1R,5S)-3,8-diazabicyclo[3.2.1]octan-3-yl)-8-fluoro-2-(3-fluoro-[1,3′-biazetidin]-1′-yl)quinazolin-7-yl)naphthalen-2-ol]
3 | 0.0001 to 10 | 10 to 100 | CN(C)C1(CNc2nc(N3C[C@H]4CC[C@@H](C3)N4)c3ccc(-c4cc(O)cc5ccccc45)c(F)c3n2)CCOCC1 [P-0639, 4-(4-((1R,5S)-3,8-diazabicyclo[3.2.1]octan-3-yl)-2-(((4-(dimethylamino)tetrahydro-2H-pyran-4-yl)methyl)amino)-8-fluoroquinazolin-7-yl)naphthalen-2-ol]
4 | 0.0001 to 10 | 10 to 100 | CN(C)C1(C(N)=O)CN(c2nc(N3C[C@H]4CC[C@@H](C3)N4)c3ccc(-c4cc(O)cc5ccccc45)c(F)c3n2)C1 [P-0640, 1-(4-((1R,5S)-3,8-diazabicyclo[3.2.1]octan-3-yl)-8-fluoro-7-(3-hydroxynaphthalen-1-yl)quinazolin-2-yl)-3-(dimethylamino)azetidine-3-carboxamide]
5 | 0.0001 to 10 | 10 to 100 | CN1CCCC12CN(c1nc(N3C[C@H]4CC[C@@H](C3)N4)c3ccc(-c4cc(O)cc5ccccc45)c(F)c3n1)C2 [P-0641, 4-(4-((1R,5S)-3,8-diazabicyclo[3.2.1]octan-3-yl)-8-fluoro-2-(5-methyl-2,5-diazaspiro[3.4]octan-2-yl)quinazolin-7-yl)naphthalen-2-ol]
6 | 0.0001 to 10 | 0.0001 to 10 | NC(=O)CCN1[C@@H]2CC[C@H]1CN(c1nc(OCC34CCCN3CCC4)nc3c(F)c(-c4cc(O)cc5ccccc45)ccc13)C2 [P-0642, 3-((1R,5S)-3-(8-fluoro-7-(3-hydroxynaphthalen-1-yl)-2-((tetrahydro-1H-pyrrolizin-7a(5H)-yl)methoxy)quinazolin-4-yl)-3,8-diazabicyclo[3.2.1]octan-8-yl)propanamide]
7 | 0.0001 to 10 | 10 to 100 | CN1CC2(C1)CN(c1nc(N3C[C@H]4CC[C@@H](C3)N4)c3ccc(-c4cc(O)cc5ccccc45)c(F)c3n1)C2 [P-0643, 4-(4-((1R,5S)-3,8-diazabicyclo[3.2.1]octan-3-yl)-8-fluoro-2-(6-methyl-2,6-diazaspiro[3.3]heptan-2-yl)quinazolin-7-yl)naphthalen-2-ol]
8 | 0.0001 to 10 | 10 to 100 | Fc1cc2c(N3C[C@H]4CC[C@@H](C3)N4)nc(OCC34CCCN3CCC4)nc2c(F)c1-c1c(Cl)cnc2[nH]ccc12 [P-0645, 4-((1R,5S)-3,8-diazabicyclo[3.2.1]octan-3-yl)-7-(5-chloro-1H-pyrrolo[2,3-b]pyridin-4-yl)-6,8-difluoro-2-((tetrahydro-1H-pyrrolizin-7a(5H)-yl)methoxy)quinazoline]
9 | 0.0001 to 10 | 0.0001 to 10 | Cc1ccc2[nH]cc(-c3ccc4c(N5C[C@H]6CC[C@@H](C5)N6)nc(OCC56CCCN5CCC6)nc4c3F)c2c1F [P-0646, 4-((1R,5S)-3,8-diazabicyclo[3.2.1]octan-3-yl)-8-fluoro-7-(4-fluoro-5-methyl-1H-indol-3-yl)-2-((tetrahydro-1H-pyrrolizin-7a(5H)-yl)methoxy)quinazoline]
10 | 0.0001 to 10 | 10 to 100 | CC(C)(COc1nc(N2C[C@H]3CC[C@@H](C2)N3)c2ccc(-c3cc(O)cc4ccccc34)c(F)c2n1)C(=O)O [P-0647, 3-((4-((1R,5S)-3,8-diazabicyclo[3.2.1]octan-3-yl)-8-fluoro-7-(3-hydroxynaphthalen-1-yl)quinazolin-2-yl)oxy)-2,2-dimethylpropanoic acid]
11 | 0.0001 to 10 | 10 to 100 | COC(=O)C(C)(C)COc1nc(N2C[C@H]3CC[C@@H](C2)N3)c2ccc(-c3cc(O)cc4ccccc34)c(F)c2n1 [P-0648, methyl 3-((4-((1R,5S)-3,8-diazabicyclo[3.2.1]octan-3-yl)-8-fluoro-7-(3-hydroxynaphthalen-1-yl)quinazolin-2-yl)oxy)-2,2-dimethylpropanoate]
12 | 0.0001 to 10 | 0.0001 to 10 | Oc1cc(-c2ccc3c(N4C[C@H]5CC[C@@H](C4)N5)nc(OCCN4CCC(F)(F)C4)nc3c2F)c2ccccc2c1 [P-0649, 4-(4-((1R,5S)-3,8-diazabicyclo[3.2.1]octan-3-yl)-2-(2-(3,3-difluoropyrrolidin-1-yl)ethoxy)-8-fluoroquinazolin-7-yl)naphthalen-2-ol]
13 | 0.0001 to 10 | 0.0001 to 10 | Oc1cc(-c2ccc3c(N4C[C@H]5CC[C@@H](C4)N5)nc(OCC4CC(O)C4)nc3c2F)c2ccccc2c1 (stereo partly drawn) [P-0650, 4-(4-((1R,5S)-3,8-diazabicyclo[3.2.1]octan-3-yl)-8-fluoro-2-((3-hydroxycyclobutyl)methoxy)quinazolin-7-yl)naphthalen-2-ol]
14 | 0.0001 to 10 | 0.0001 to 10 | OCC1(COc2nc(N3C[C@H]4CC[C@@H](C3)N4)c3ccc(-c4cc(O)cc5ccccc45)c(F)c3n2)CCC1 [P-0651, 4-(4-((1R,5S)-3,8-diazabicyclo[3.2.1]octan-3-yl)-8-fluoro-2-((1-(hydroxymethyl)cyclobutyl)methoxy)quinazolin-7-yl)naphthalen-2-ol]
15 | 0.0001 to 10 | 10 to 100 | OCCCOc1nc(N2C[C@H]3CC[C@@H](C2)N3)c2ccc(-c3cc(O)cc4ccccc34)c(F)c2n1 [P-0652, 4-(4-((1R,5S)-3,8-diazabicyclo[3.2.1]octan-3-yl)-8-fluoro-2-(3-hydroxypropoxy)quinazolin-7-yl)naphthalen-2-ol]
16 | 0.0001 to 10 | 0.0001 to 10 | Fc1c(-c2c[nH]c3cccc(CC4CC4)c23)ccc2c(N3C[C@H]4CC[C@@H](C3)N4)nc(OCC34CCCN3CCC4)nc12 [P-0653, 4-((1R,5S)-3,8-diazabicyclo[3.2.1]octan-3-yl)-7-(4-(cyclopropylmethyl)-1H-indol-3-yl)-8-fluoro-2-((tetrahydro-1H-pyrrolizin-7a(5H)-yl)methoxy)quinazoline]
17 | 0.0001 to 10 | 10 to 100 | CN1CCC[C@H]1COc1nc(N2C[C@H]3CC[C@@H](C2)N3)c2ccc(-c3c[nH]c4cccc(Cl)c34)c(F)c2n1 [P-0654, 4-((1R,5S)-3,8-diazabicyclo[3.2.1]octan-3-yl)-7-(4-chloro-1H-indol-3-yl)-8-fluoro-2-(((S)-1-methylpyrrolidin-2-yl)methoxy)quinazoline]
18 | 0.0001 to 10 | 100 to 1000 | O=C(CCO)Nc1nc(N2C[C@H]3CC[C@@H](C2)N3)c2ccc(-c3cc(O)cc4ccccc34)c(F)c2n1 [P-0655, N-(4-((1R,5S)-3,8-diazabicyclo[3.2.1]octan-3-yl)-8-fluoro-7-(3-hydroxynaphthalen-1-yl)quinazolin-2-yl)-3-hydroxypropanamide]
19 | 0.0001 to 10 | 100 to 1000 | COC1CN(c2nc(N3C[C@H]4CC[C@@H](C3)N4)c3ccc(-c4cc(O)cc5ccccc45)c(F)c3n2)C1 [P-0658, 4-(4-((1R,5S)-3,8-diazabicyclo[3.2.1]octan-3-yl)-8-fluoro-2-(3-methoxyazetidin-1-yl)quinazolin-7-yl)naphthalen-2-ol]
20 | 0.0001 to 10 | 0.0001 to 10 | CN1C[C@H](O)C[C@H]1COc1nc(N2C[C@H]3CC[C@@H](C2)N3)c2ccc(-c3cc(O)cc4ccccc34)c(F)c2n1 [P-0659, (3R,5S)-5-(((4-((1R,5S)-3,8-diazabicyclo[3.2.1]octan-3-yl)-8-fluoro-7-(3-hydroxynaphthalen-1-yl)quinazolin-2-yl)oxy)methyl)-1-methylpyrrolidin-3-ol]
21 | 0.0001 to 10 | 0.0001 to 10 | NC(=O)N1[C@@H]2CC[C@H]1CN(c1nc(OCC34CCCN3CCC4)nc3c(F)c(-c4cc(O)cc5ccccc45)ccc13)C2 [P-0660, (1R,5S)-3-(8-fluoro-7-(3-hydroxynaphthalen-1-yl)-2-((tetrahydro-1H-pyrrolizin-7a(5H)-yl)methoxy)quinazolin-4-yl)-3,8-diazabicyclo[3.2.1]octane-8-carboxamide]

Row | SMILES | IC50 [1] [µM] | IC50 [2] [µM]
22 | CC(C)(O)CCOc1nc(N2C[C@H]3CC[C@@H](C2)N3)c2ccc(-c3cc(O)cc4ccccc34)c(F)c2n1 [P-0656, 4-(4-((1R,5S)-3,8-diazabicyclo[3.2.1]octan-3-yl)-8-fluoro-2-(3-hydroxy-3-methylbutoxy)quinazolin-7-yl)naphthalen-2-ol] | 0.0001 to 10 | 10 to 100

— patent publication US20230081426A1, “COMPOUNDS AND METHODS FOR KRAS MODULATION AND INDICATIONS THEREFOR” (Plexxikon Inc., priority 2020, published 2023)
